How the values were obtained:
[1] = test system: spinal cord injury-induced overactive bladder; experiment: Spinal cord injury-induced overactive bladder model, cystometrogram; format: in vivo, rat; conditions: intragastric, 10 mg/kg as free body; 1 hour after administration; FIG. 7
Protocol: In ether anesthetized rats, spinal transactions were performed at the level of Th9-Th10. Each rat was treated with amikacin 10 mg/body, i.m. for 7 days, and micturition management was done 2 times/day for 2 weeks to prevent over-distension of the bladder. About 6 weeks after the spinal cord operation, rats were anesthetized with pentobarbital sodium and each cannula (PE-50: Nihon Becton Dickinson) was implanted into the urinary bladder and stomach, tunneled subcutaneously, secured on the back of the neck and closed. Seven days after the cannula implantation, cystometrogram was performed. Saline was instilled into the urinary bladder at a rate of 12 mL/hour. The saline instillation was stopped every micturition. After the stable spontaneous small bladder contraction in filling phase was confirmed, ethyl (—)-2-[4-(2-{[(1S,2R)-2-hydroxy-2-(4-hydroxyphenyl)-1-methylethyl]amino}ethyl)-2,5-dimethylphenoxy] acetate hydrochloride (0 (vehicle) or 10 mg/kg as dose of free body) was administered intragastrically. The micturition parameter at 1 hour after the administration of ethyl (−)-2-[4-(2-{[(1S,2R)-2-hydroxy-2-(4-hydroxyphenyl)-1-methylethyl]amino}ethyl)-2,5-dimethylphenoxy] acetate hydrochloride was measured and was expressed as a percentage to that at the pre-administration (0 hour).

[2] = test system: lower urinary tract partially obstructed overactive bladder; experiment: Lower urinary tract partially obstructed rat overactive bladder model, cystometrogram; format: in vivo; conditions: intragastric
Protocol: Rats were anesthetized with pentobarbital sodium. After urethra was ligated with a tube (width: 1 mm) by thread, the tube was removed. Six weeks after the lower urinary tract operation, the implanted thread was removed, and each cannula was implanted into the urinary bladder and stomach, tunneled subcutaneously and secured on the back of the neck and closed. The next day, cystometrogram of freely-moved conscious rats were measured. Saline was instilled into the urinary bladder at a rate of 12 mL/hour. The saline instillation was stopped every micturition. After the stable spontaneous small bladder contraction in filling phase was confirmed, ethyl (−)-2-[4-(2-{[(1S,2R)-2-hydroxy-2-(4-hydroxyphenyl)-1-methylethyl]amino}ethyl)-2,5-dimethylphenoxy] acetate hydrochloride (0 (vehicle), 1 or 10 mg/kg as doses of free body) or tolterodine (10 mg/kg) was administered intragastrically. The micturition parameters at 1 hour after the administration of ethyl (−)-2-[4-(2-{[(1S,2R)-2-hydroxy-2-(4-hydroxyphenyl)-1-methylethyl]amino}ethyl)-2,5-dimethylphenoxy] acetate hydrochloride or tolterodine were measured and were expressed as a percentage to that at the pre-administration (0 hour).

[3] = test system: PGE2-induced bladder hyperactivity; experiment: Prostaglandin (PG) E2-induced rat overactive bladder model, cystometrogram in conscious rats; format: in vivo; conditions: intragastric, 0.1, 1 or 10 mg/kg as free body, 1, 2, 4 hours after administration
Protocol: Rats were anesthetized with pentobarbital sodium. Each cannula was implanted into the urinary bladder and stomach, tunneled subcutaneously and secured on the back of the neck and closed. Seven days after the cannula implantation, cystometrogram of the freely-moved conscious rats were measured. Saline was continuously instilled into the bladder at a rate of 6 mL/hour, and after the cystometric parameters were stabilized, PGE2 (60 μmol/L)-containing saline was instilled continuously instead of the saline into the bladder. After the stable shortening of the micturition interval was confirmed under the condition, ethyl(−)-2-[4-(2-{[(1S,2R)-2-hydroxy-2-(4-hydroxyphenyl) -1-methylethyl]amino}ethyl)-2,5-dimethylphenoxy] acetate hydrochloride (0 (vehicle), 0.1, 1 or 10 mg/kg as doses of the free body) was administered intragastrically. Cystometric parameters were measured for 4 hours after the administration and were expressed as a percentage to those at the pre-administration (0 hour).

[4] = test system: isolated urethra; experiment: Endothelin-1-induced tonic contraction of isolated urethral preparations; set-up: species or system cynomolgus monkey
Protocol: (§1) The detrusor of the cynomolgus monkey (both sexes) was isolated and dissected. Tracheal, atrial and urethral dissections were also prepared. Then the effect of (−)-2-[4-(2-{[(1S,2R)-2-hydroxy-2-(4-hydroxyphenyl)-1-methylethyl]amino}ethyl)-2,5-dimethylphenoxy] acetic acid on the tone of the detrusor preparation was tested. Carbachol-induced tonic contractions of the tracheal preparations, the heart rate of the atrial preparations and endothelin-1-induced tonic contractions of the urethral preparations were also investigated using the Magnus method.

[5] = test system: isolated monkey detrusor; experiment: Effects on the tone of the isolated monkey detrusor (Magnus method); conditions: isolated cynomolgus monkey detrusor; for EC50: Primates, read-out: EC50, reduction of the tone of the isolated monkey detrusor
Protocol: as §1

[6] = test system: isolated atria; experiment: Heart rate of isolated atrial preparations (beta1-AR-stimulated function); set-up: species or system cynomolgus monkey
Protocol: as §1

[7] = test system: isolated trachea; experiment: Carbachol-induced tonic contraction of isolated tracheal preparations (beta 2-AR-stimulated function); set-up: species or system cynomolgus monkey; conditions: for effect on carbachol-induced tonic contraction of the isolated trachea: beta 2-AR-stimulated function
Protocol: as §1

Structure (SMILES): CCOC(=O)COc1cc(C)c(CCN[C@@H](C)[C@H](O)c2ccc(O)cc2)cc1C.Cl [Compound 1, ethyl (−)-2-[4-(2-{[(1S,2R)-2-hydroxy-2-(4-hydroxyphenyl)-1-methylethyl]amino}ethyl)-2,5-dimethyl-phenoxy] acetate hydrochloride]
- frequency of spontaneous small bladder contraction in filling phase [1]: decreased the frequency
- amplitude of spontaneous small bladder contractions in filling phase ([2]; 1 or 10 mg/kg as free body, 1 hour after administration, FIG. 8): decreased the amplitude
- frequency of spontaneous small bladder contractions in filling phase ([2]; 1 or 10 mg/kg as free body, 1 hour after administration, FIG. 9): decreased
- micturition pressure ([2]; 1 or 10 mg/kg as free body, 1 hour after administration, FIG. 10): did not affect the micturition pressure
- potency on spontaneous small bladder contractions relative to tolterodine ([2]; tolterodine 10 mg/kg, FIGS. 8 and 9): stronger than that of tolterodine
- micturition interval ([3]; FIGS. 1 to 3): prolonged the micturition interval
- micturition volume ([3]; FIGS. 4 to 6): increased the micturition volume dose-dependently

Structure (SMILES): Cc1cc(OCC(=O)O)c(C)cc1CCN[C@@H](C)[C@H](O)c1ccc(O)cc1 [(−)-2-[4-(2-{[(1S,2R)-2-hydroxy-2-(4-hydroxyphenyl)-1-methylethyl]amino}ethyl)-2,5-dimethylphenoxy] acetic acid]
- effect on endothelin-1-induced tonic contraction of the isolated urethra [4]: no effect
- EC50 [5]: 820 nM
- effect on heart rate of the isolated atria ([6]; beta1-AR-stimulated function): less effect
- detrusor selectivity compared with the atria ([6]; detrusor versus atria): ~80 times
- effect on carbachol-induced tonic contraction of the isolated trachea [7]: less effect
- detrusor selectivity compared with the trachea ([7]; detrusor versus trachea): about 1200 times

Structure (SMILES): CCN(CC)CC#CCOC(=O)C(O)(c1ccccc1)C1CCCCC1 (centres unmarked) [oxybutynin]
- relaxation of the isolated monkey detrusor [5]: No significant relaxation

Structure (SMILES): CCCOC(C(=O)OC1CCN(C)CC1)(c1ccccc1)c1ccccc1 [propiverine]
- relaxation of the isolated monkey detrusor [5]: No significant relaxation

Structure (SMILES): CC(C)NCC(O)c1ccc(O)c(O)c1 (centres unmarked) [isoproterenol, reference compound]
- EC50 [5]: 190 nM
- effect on carbachol-induced tonic contraction of the isolated trachea [7]: reduced the carbachol-induced tonic contraction
